Tests used:
Format in all cases: cell-based
COLO 205 = experiment: NCI60 growth inhibition, COLO 205; conditions: Colon Cancer
Protocol: (§1) Representative compounds were tested in 60 cell lines (NCI60) at the National Cancer Institute, Developmental Therapeutics Program.
(§2) Representative compounds were tested in a panel of 60 cancer cells (NCI 60) at the National Cancer Institute. Growth inhibition are shown in table 2, table 3, table 4, table 5, and FIG. 1, FIG. 2, FIG. 3, FIG. 4, FIG. 5.

CAKI-1 = experiment: NCI60 growth inhibition, CAKI-1; conditions: Renal Cancer; note: test concentration or dose not given here
Protocol: as §1, §2

SNB-19 = experiment: NCI60 growth inhibition, SNB-19; conditions: CNS Cancer; note: test concentration or dose not given here
Protocol: as §1, §2

K-562 = experiment: NCI60 growth inhibition, K-562; conditions: Leukemia
Protocol: as §1, §2

NCI-H460 = experiment: NCI60 growth inhibition, NCI-H460; conditions: Non-Small Cell Lung Cancer
Protocol: as §1, §2

HCC-2998 = experiment: NCI60 growth inhibition, HCC-2998; conditions: Colon Cancer
Protocol: as §1, §2

HOP-92 = experiment: NCI60 growth inhibition, HOP-92; conditions: Non-Small Cell Lung Cancer
Protocol: as §1, §2

ACHN = experiment: NCI60 growth inhibition, ACHN; conditions: Renal Cancer
Protocol: as §1, §2

EKVX = experiment: NCI60 growth inhibition, EKVX; conditions: Non-Small Cell Lung Cancer
Protocol: as §1, §2

A549/ATCC = experiment: NCI60 growth inhibition, A549/ATCC; conditions: Non-Small Cell Lung Cancer
Protocol: as §1, §2

DU-145 = experiment: NCI60 growth inhibition, DU-145; conditions: Prostate Cancer
Protocol: as §1, §2

UACC-62 = experiment: NCI60 growth inhibition, UACC-62; conditions: Melanoma; note: test concentration or dose not given here
Protocol: as §1, §2

OVCAR-5 = experiment: NCI60 growth inhibition, OVCAR-5; conditions: Ovarian Cancer
Protocol: as §1, §2

SK-MEL-2 = experiment: NCI60 growth inhibition, SK-MEL-2; conditions: Melanoma; note: test concentration or dose not given here
Protocol: as §1, §2

MALME-3M = experiment: NCI60 growth inhibition, MALME-3M; conditions: Melanoma
Protocol: as §1, §2

786-0 = experiment: NCI60 growth inhibition, 786-0; conditions: Renal Cancer
Protocol: as §1, §2

UO-31 = experiment: NCI60 growth inhibition, UO-31; conditions: Renal Cancer
Protocol: as §1, §2

A498 = experiment: NCI60 growth inhibition, A498; conditions: Renal Cancer; note: test concentration or dose not given here
Protocol: as §1, §2

OVCAR-4 = experiment: NCI60 growth inhibition, OVCAR-4; conditions: Ovarian Cancer; note: test concentration or dose not given here
Protocol: as §1, §2

SW-620 = experiment: NCI60 growth inhibition, SW-620; conditions: Colon Cancer; note: test concentration or dose not given here
Protocol: as §1, §2

SK-OV-3 = experiment: NCI60 growth inhibition, SK-OV-3; conditions: Ovarian Cancer
Protocol: as §1, §2

M14 = experiment: NCI60 growth inhibition, M14; conditions: Melanoma
Protocol: as §1, §2

OVCAR-3 = experiment: NCI60 growth inhibition, OVCAR-3; conditions: Ovarian Cancer
Protocol: as §1, §2

SN12C = experiment: NCI60 growth inhibition, SN12C; conditions: Renal Cancer
Protocol: as §1, §2

UACC-257 = experiment: NCI60 growth inhibition, UACC-257; conditions: Melanoma; note: test concentration or dose not given here
Protocol: as §1, §2

U251 = experiment: NCI60 growth inhibition, U251; conditions: CNS Cancer
Protocol: as §1, §2

T-47D = experiment: NCI60 growth inhibition, T-47D; conditions: Breast Cancer
Protocol: as §1, §2

KM12 = experiment: NCI60 growth inhibition, KM12; conditions: Colon Cancer; note: test concentration or dose not given here
Protocol: as §1, §2

RPMI-8226 = experiment: NCI60 growth inhibition, RPMI-8226; conditions: Leukemia
Protocol: as §1, §2

NCI/ADR-RES = experiment: NCI60 growth inhibition, NCI/ADR-RES; conditions: Ovarian Cancer
Protocol: as §1, §2

HT29 = experiment: NCI60 growth inhibition, HT29; conditions: Colon Cancer
Protocol: as §1, §2

SK-MEL-28 = experiment: NCI60 growth inhibition, SK-MEL-28; conditions: Melanoma
Protocol: as §1, §2

MDA-MB-468 = experiment: NCI60 growth inhibition, MDA-MB-468; conditions: Breast Cancer; note: test concentration or dose not given here
Protocol: as §1, §2

MDA-MB-435 = experiment: NCI60 growth inhibition, MDA-MB-435; conditions: Melanoma
Protocol: as §1, §2

NCI-H522 = experiment: NCI60 growth inhibition, NCI-H522; conditions: Non-Small Cell Lung Cancer
Protocol: as §1, §2

SF-295 = experiment: NCI60 growth inhibition, SF-295; conditions: CNS Cancer; note: test concentration or dose not given here
Protocol: as §1, §2

BT-549 = experiment: NCI60 growth inhibition, BT-549; conditions: Breast Cancer
Protocol: as §1, §2

HOP-62 = experiment: NCI60 growth inhibition, HOP-62; conditions: Non-Small Cell Lung Cancer; note: test concentration or dose not given here
Protocol: as §1, §2

NCI-H322M = experiment: NCI60 growth inhibition, NCI-H322M; conditions: Non-Small Cell Lung Cancer
Protocol: as §1, §2

NCI-H226 = experiment: NCI60 growth inhibition, NCI-H226; conditions: Non-Small Cell Lung Cancer; note: test concentration or dose not given here
Protocol: as §1, §2

SF-539 = experiment: NCI60 growth inhibition, SF-539; conditions: CNS Cancer
Protocol: as §1, §2

SR = experiment: NCI60 growth inhibition, SR; conditions: Leukemia
Protocol: as §1, §2

HL-60(TB) = experiment: NCI60 growth inhibition, HL-60(TB); conditions: Leukemia
Protocol: as §1, §2

LOX IMVI = experiment: NCI60 growth inhibition, LOX IMVI; conditions: Melanoma
Protocol: as §1, §2

NCI-H23 = experiment: NCI60 growth inhibition, NCI-H23; conditions: Non-Small Cell Lung Cancer
Protocol: as §1, §2

MDA-MB-231/ATCC = experiment: NCI60 growth inhibition, MDA-MB-231/ATCC; conditions: Breast Cancer
Protocol: as §1, §2

HCT-116 = experiment: NCI60 growth inhibition, HCT-116; conditions: Colon Cancer
Protocol: as §1, §2

PC-3 = experiment: NCI60 growth inhibition, PC-3; conditions: Prostate Cancer
Protocol: as §1, §2

HCT-15 = experiment: NCI60 growth inhibition, HCT-15; conditions: Colon Cancer; note: test concentration or dose not given here
Protocol: as §1, §2

SF-268 = experiment: NCI60 growth inhibition, SF-268; conditions: CNS Cancer; note: test concentration or dose not given here
Protocol: as §1, §2

CCRF-CEM = experiment: NCI60 growth inhibition, CCRF-CEM; conditions: Leukemia
Protocol: as §1, §2

MOLT-4 = experiment: NCI60 growth inhibition, MOLT-4; conditions: Leukemia
Protocol: as §1, §2

SNB-75 = experiment: NCI60 growth inhibition, SNB-75; conditions: CNS Cancer; note: test concentration or dose not given here
Protocol: as §1, §2

SK-MEL-5 = experiment: NCI60 growth inhibition, SK-MEL-5; conditions: Melanoma
Protocol: as §1, §2

MCF7 = experiment: NCI60 growth inhibition, MCF7; conditions: Breast Cancer
Protocol: as §1, §2

IGROV1 = experiment: NCI60 growth inhibition, IGROV1; conditions: Ovarian Cancer
Protocol: as §1, §2

HS 578T = experiment: NCI60 growth inhibition, HS 578T; conditions: Breast Cancer
Protocol: as §1, §2

TK-10 = experiment: NCI60 growth inhibition, TK-10; conditions: Renal Cancer
Protocol: as §1, §2

O=C1c2cccnc2C(=O)c2nc3cc(N4CCN(C5CC5)CC4)ccc3nc21 [Compound 49, 9-(4-cyclopropylpiperazin-1-yl)pyrido[2,3-b]phenazine-5,12-dione]
Growth inhibition (% control) GIPRCNT (COLO 205): −68.34 % control | Growth inhibition (% control) GIPRCNT (CAKI-1): −5.268 % control | Growth inhibition (% control) GIPRCNT (SNB-19): −81.52 % control | Growth inhibition (% control) GIPRCNT (K-562): 0.8659 % control | Growth inhibition (% control) GIPRCNT (NCI-H460): −54.12 % control | Growth inhibition (% control) GIPRCNT (HCC-2998): −80.83 % control | Growth inhibition (% control) GIPRCNT (HOP-92): 62.46 % control | Growth inhibition (% control) GIPRCNT (ACHN): −35.0589 % control | Growth inhibition (% control) GIPRCNT (EKVX): 27.37 % control | Growth inhibition (% control) GIPRCNT (A549/ATCC): −53.27 % control | Growth inhibition (% control) GIPRCNT (DU-145): −75.9298 % control | Growth inhibition (% control) GIPRCNT (UACC-62): −98.5184 % control | Growth inhibition (% control) GIPRCNT (OVCAR-5): −82.2933 % control | Growth inhibition (% control) GIPRCNT (SK-MEL-2): −16.262 % control | Growth inhibition (% control) GIPRCNT (MALME-3M): −100 % control | Growth inhibition (% control) GIPRCNT (786-0): 28.12 % control | Growth inhibition (% control) GIPRCNT (UO-31): −99.9594 % control | Growth inhibition (% control) GIPRCNT (A498): −88.1317 % control | Growth inhibition (% control) GIPRCNT (OVCAR-4): −87.768 % control | Growth inhibition (% control) GIPRCNT (SW-620): −37.75 % control | Growth inhibition (% control) GIPRCNT (SK-OV-3): −78.6244 % control | Growth inhibition (% control) GIPRCNT (M14): −91.1652 % control | Growth inhibition (% control) GIPRCNT (OVCAR-3): −1.5625 % control | Growth inhibition (% control) GIPRCNT (SN12C): −94.7287 % control | Growth inhibition (% control) GIPRCNT (UACC-257): −84.4508 % control | Growth inhibition (% control) GIPRCNT (U251): −32.64 % control | Growth inhibition (% control) GIPRCNT (T-47D): 22.46 % control | Growth inhibition (% control) GIPRCNT (KM12): 9.272 % control | Growth inhibition (% control) GIPRCNT (RPMI-8226): 25.33 % control | Growth inhibition (% control) GIPRCNT (NCI/ADR-RES): 20.15 % control | Growth inhibition (% control) GIPRCNT (HT29): −21.31 % control | Growth inhibition (% control) GIPRCNT (SK-MEL-28): −76.8851 % control | Growth inhibition (% control) GIPRCNT (MDA-MB-468): −21.9933 % control | Growth inhibition (% control) GIPRCNT (MDA-MB-435): −87.4148 % control | Growth inhibition (% control) GIPRCNT (NCI-H522): −50.54 % control | Growth inhibition (% control) GIPRCNT (SF-295): −88.89 % control | Growth inhibition (% control) GIPRCNT (BT-549): −93.6913 % control | Growth inhibition (% control) GIPRCNT (HOP-62): −56.64 % control | Growth inhibition (% control) GIPRCNT (NCI-H322M): −96.67 % control | Growth inhibition (% control) GIPRCNT (NCI-H226): −49.1 % control | Growth inhibition (% control) GIPRCNT (SF-539): −99.37 % control | Growth inhibition (% control) GIPRCNT (SR): −10.03 % control | Growth inhibition (% control) GIPRCNT (HL-60(TB)): −43.09 % control | Growth inhibition (% control) GIPRCNT (LOX IMVI): −46.5487 % control | Growth inhibition (% control) GIPRCNT (NCI-H23): −56.52 % control | Growth inhibition (% control) GIPRCNT (MDA-MB-231/ATCC): 15.11 % control | Growth inhibition (% control) GIPRCNT (HCT-116): 0.8509 % control | Growth inhibition (% control) GIPRCNT (PC-3): 11.58 % control | Growth inhibition (% control) GIPRCNT (HCT-15): −58.81 % control | Growth inhibition (% control) GIPRCNT (SF-268): 12.46 % control | Growth inhibition (% control) GIPRCNT (CCRF-CEM): 26.17 % control | Growth inhibition (% control) GIPRCNT (MOLT-4): 26.2 % control | Growth inhibition (% control) GIPRCNT (SNB-75): −64.69 % control | Growth inhibition (% control) GIPRCNT (SK-MEL-5): −98.1218 % control | Growth inhibition (% control) GIPRCNT (MCF7): −56.1231 % control | Growth inhibition (% control) GIPRCNT (IGROV1): −13.7639 % control | Growth inhibition (% control) GIPRCNT (HS 578T): −36.5499 % control | Growth inhibition (% control) GIPRCNT (TK-10): 0.1224 % control

Reference: patent US20220162167A1, “SUBSTITUTED BICYCLIC AND TETRACYCLIC QUINONES AND USE THEREOF AS ANTI-CANCER AGENTS” (THE REGENTS OF THE UNIVERSITY OF MICHIGAN, priority 2019, published 2022)
